# Where “and” joins values, the source holds several entries; their conditions need not be identical. Equal values may be shown once. Read-outs that look alike come from different tables or passages of the source.
# Assays:
# Folsomia candida [1] = assay: Multigeneration toxicity test (survival and reproduction) with springtails in spiked LUFA 2.2 soil; assay type: in vivo; conditions: for EC50: number of juveniles
# Description: F. candida were taken from cultures at the Department of Ecological Science at the Vrije Universiteit in Amsterdam. To obtain age-synchronized animals, adults from the culture were separated in boxes with a layer of plaster of Paris over a period of 2–3 days to lay eggs, after which they were removed. After removal of the adults, the eggs were incubated under a 12 h light/12 h dark regime at 20 °C and 75% relative humidity, where they hatched and grew. Juveniles of 10–12 days old were used for testing.
# All tests were performed in the natural standard LUFA 2.2 (Lufa Speyer, Germany), a loamy sand with 1.59 ± 0.13% organic carbon, pH in 0.01 M CaCl2 of 5.4 ± 0.2, and water holding capacity (WHC) of 43.5 ± 2.8% of its dry weight.
# Pure imidacloprid and thiacloprid (purity 98%) were kindly provided by Bayer CropScience, Monheim, Germany. Test concentrations of imidacloprid and thiacloprid were based on the results of earlier tests. Stock solution of both compounds in water were prepared, to spike the chemicals into the soil and at the same time bringing moisture content to the desired level of 50% of the WHC. To ensure complete thiacloprid dissolution, a small amount of acetone was added to the stock solution. This stock solution was used to spike soil with the highest test concentration and further diluted for spiking soil with the lower concentrations tested. Considering the low amount of acetone needed to make thiacloprid completely dissolve, no attempts were made to correct for that by adding acetone to the lower concentrations and control in the multigeneration test. All soils were thoroughly mixed to achieve a homogenous distribution of the test chemicals in the test soil.
# Multigeneration tests started with a control, […] imidacloprid (0, 0.001, 0.003, 0.01, 0.03, 0.1, 0.3, 1.0 mg/kg dry soil) and 9 thiacloprid concentrations (0, 0.0015, 0.0045, 0.014, 0.041, 0.11, 0.31, 1.1, 3.3, 10.0 mg/kg dry soil). Batches of soil sufficient to perform three toxicity tests were prepared. After filling test jars for the parent generation exposure, the remaining spiked soil was stored in glass jars in a climate room at 20 °C for subsequent exposure of the next two generations. Moisture content of the spiked soil was checked regularly by weighing the jars, and replenished by adding deionized water if needed.
# After 28 days (35 days for the second generation), the juveniles from the same exposure concentration were pooled in the same container with a moist plaster of Paris bottom and incubated overnight before being transferred to the next cycle of exposure. This experiment spanned a total of three continuous generations (referred to as F0, F1, and F2).
# Folsomia candida [2] = conditions: cited from earlier work
# [3] = F0 generation, 28 days, LUFA 2.2 soil, nominal concentrations
# [4] = F1 generation, 35 days, soil spiked at start of F0, nominal concentrations
# [5] = F2 generation, 28 days, soil spiked at start of F0, nominal concentrations
# [6] = range over the three generations, Lufa 2.2, pure compound, this study
# [7] = 28-day exposure, Lufa 2.2, ~3.0% OM, pure, ref De Lima e Silva et al. (submitted)
# [8] = artificial soil, 10% OM, based on regression analysis, ref Reynolds (2008)
smiles,measurement,setting,value
"O=[N+]([O-])NC1=NCCN1Cc1ccc(Cl)nc1 [Imidacloprid, imidacloprid]",NOEC,Folsomia candida [1]; [3],0.1 mg/kg dry soil and 0.10 mg/kg dry soil
same,LC50,"Folsomia candida [1]; F0 generation, 28 days, adult survival, LUFA 2.2 soil, nominal concentrations",0.44 mg/kg dry soil
same,EC50,Folsomia candida [1]; [3],0.29 mg/kg dry soil
same,EC50,Folsomia candida [1]; [4],0.12 mg/kg dry soil
same,LC50,Folsomia candida [1]; [4],0.39 mg/kg dry soil
same,NOEC,Folsomia candida [1]; [4],0.1 mg/kg dry soil and 0.10 mg/kg dry soil
same,EC50,Folsomia candida [1]; [5],0.14 mg/kg dry soil
same,LC50,Folsomia candida [1]; [5],0.21 mg/kg dry soil
same,NOEC,Folsomia candida [1]; [5],0.1 mg/kg dry soil and 0.10 mg/kg dry soil
same,EC10,"Folsomia candida [1]; Folsomia candida, in vivo, 35 days, pH 5.4",0.080 mg/kg dry soil
same,"EC50, range over generations",Folsomia candida [1]; [6],0.12–0.29 mg/kg dry soil
same,"LC50, range over generations",Folsomia candida [1]; [6],0.21–0.44 mg/kg dry soil
same,EC50,Folsomia candida [2]; [7],0.097-0.30 mg/kg dry soil
same,LC50,Folsomia candida [2]; [7],0.20-0.65 mg/kg dry soil
same,NOEC,"Folsomia candida [2]; active substance, ref EFSA (2008)",1.25 mg/kg dry soil
same,EC50 reported by Reynolds,Folsomia candida [2]; [8],0.60 mg/kg
same,LC50 reported by Reynolds,Folsomia candida [2]; [8],1.38 mg/kg
